# Results reported in the supplement of paper PMC10307832.
# Experiments:
# Assay in all cases: relative viability (nuclei count vs DMSO), 5 days (fraction); higher = more cells survive
# [1] = compound: C1=CC2=NC=CN=C2C=C1/C=C/3\C(=O)NC(=O)S3 + CC1(C)CCC(c2ccc(Cl)cc2)=C(CN2CCN(c3ccc(C(=O)NS(=O)(=O)c4ccc(N[C@H](CCN5CCOCC5)CSc5ccccc5)c(S(=O)(=O)C(F)(F)F)c4)cc3)CC2)C1 [Navitoclax] (partner 0.5 µM)
# In short: (§1)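 Lung cancer cell lines in 1536-well plates got either a single drug or a fixed anchor-drug dose together with five library-drug doses (not always all listed) in √10 steps, by pin tool, on the day after seeding. Nuclei were counted after 5 days, and relative viability is the treated-to-vehicle ratio of nuclei counts. Values are medians of duplicate plates.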
# [2] = compound: C1=CC2=NC=CN=C2C=C1/C=C/3\C(=O)NC(=O)S3 + CS(=O)(=O)CCNCc1ccc(-c2ccc3ncnc(Nc4ccc(OCc5cccc(F)c5)c(Cl)c4)c3c2)o1 [Lapatinib] (partner 2 µM)
# In short: as §1
# BGJ398 + Luminespib = compound: CCN1CCN(c2ccc(Nc3cc(N(C)C(=O)Nc4c(Cl)c(OC)cc(OC)c4Cl)ncn3)cc2)CC1 [BGJ398] + CCNC(=O)c1noc(-c2cc(C(C)C)c(O)cc2O)c1-c1ccc(CN2CCOCC2)cc1 [Luminespib] (partner 0.01 µM)
# In short: as §1
# BGJ398 + Dasatinib = compound: CCN1CCN(c2ccc(Nc3cc(N(C)C(=O)Nc4c(Cl)c(OC)cc(OC)c4Cl)ncn3)cc2)CC1 [BGJ398] + Cc1nc(Nc2ncc(C(=O)Nc3c(C)cccc3Cl)s2)cc(N2CCN(CCO)CC2)n1 [Dasatinib] (partner 0.075 µM)
# In short: as §1
Cell Line,relative viability ([1]; first compound 0.02 µM),relative viability ([1]; first compound 0.06325 µM),relative viability ([1]; first compound 0.2 µM),relative viability ([1]; first compound 0.6325 µM),relative viability ([1]; first compound 2 µM),relative viability ([2]; first compound 0.02 µM),relative viability ([2]; first compound 0.06325 µM),relative viability ([2]; first compound 0.2 µM),relative viability ([2]; first compound 0.6325 µM),relative viability ([2]; first compound 2 µM),relative viability (BGJ398 + Luminespib; first compound 0.01 µM),relative viability (BGJ398 + Luminespib; first compound 0.03162 µM),relative viability (BGJ398 + Luminespib; first compound 0.1 µM),relative viability (BGJ398 + Luminespib; first compound 0.3162 µM),relative viability (BGJ398 + Luminespib; first compound 1 µM),relative viability (BGJ398 + Dasatinib; first compound 0.01 µM),relative viability (BGJ398 + Dasatinib; first compound 0.03162 µM),relative viability (BGJ398 + Dasatinib; first compound 0.1 µM),relative viability (BGJ398 + Dasatinib; first compound 0.3162 µM),relative viability (BGJ398 + Dasatinib; first compound 1 µM)
NCI-H520,1.15,1.49,1.08,1.04,1.01,0.842,0.92,0.832,0.757,0.882,0.205,0.235,0.234,0.205,0.203,0.138,0.177,0.138,0.142,0.146
NCI-H647,0.945,1.36,1.08,1.14,1.25,1.06,1.75,1.15,0.957,0.903,0.138,0.107,0.157,0.184,0.176,0.164,0.188,0.178,0.178,0.0946
NCI-H1792,0.597,0.621,0.564,0.658,0.401,0.948,0.851,0.839,0.953,0.554,0.406,0.542,0.344,0.401,0.277,0.644,0.783,0.741,0.497,0.343
SK-LU-1,0.84,0.765,1.02,0.854,0.868,0.834,0.977,0.891,1.01,0.693,0.215,0.193,0.189,0.188,0.197,0.173,0.19,0.142,0.153,0.13
NCI-H1650,1.23,1.3,1.14,1.14,1.3,0.728,0.725,0.937,0.709,0.72,0.195,–,0.196,0.205,0.197,0.31,–,0.205,0.163,0.17
NCI-H2009,1.2,1.2,1.15,1.21,1.23,0.873,0.965,1.03,1.03,0.802,1.06,1.05,1.03,1.02,0.972,0.275,0.311,0.295,0.329,0.297
LOU-NH91,0.686,0.659,0.685,0.641,0.657,0.734,0.786,0.81,0.739,0.585,0.34,–,0.327,0.312,0.301,0.522,–,0.59,0.459,0.522
NCI-H2405,0.751,1.14,0.938,0.947,0.755,1.24,1.39,1.13,1.11,0.323,0.818,0.807,0.668,0.758,0.686,0.213,0.236,0.233,0.225,0.192
LCLC-97TM1,0.483,0.339,0.483,0.425,0.379,0.751,1.12,1.73,0.817,0.27,0.703,0.859,0.857,0.823,0.797,0.671,0.92,0.773,0.646,0.921
NCI-H596,0.902,0.96,0.977,0.883,0.951,1.1,1.25,1.04,1.06,1.04,1.07,1.01,0.95,0.795,0.768,0.515,0.49,0.576,0.506,0.474
NCI-H727,0.499,0.642,0.541,0.395,0.228,0.803,0.706,0.918,0.795,0.297,0.365,0.467,0.367,0.345,0.314,0.462,0.337,0.316,0.384,0.447
H3255,0.533,0.421,0.581,0.449,0.498,0.318,0.241,0.282,0.238,0.217,0.888,–,1.02,0.625,0.422,0.399,–,0.41,0.274,0.353
SK-MES-1,–,1.4,1.3,1.21,1.23,0.374,0.656,0.486,0.397,0.406,0.8,0.784,0.843,0.799,0.844,0.421,0.33,0.433,0.426,0.418
NCI-H1437,1.03,1.1,1.12,1.07,0.93,0.791,0.825,0.806,0.715,0.572,1.18,1.19,1.05,1.12,1.11,0.484,0.444,0.373,0.42,0.424
LU99A,0.77,0.993,0.746,0.876,0.64,0.976,1.06,1.07,0.854,0.645,0.205,0.248,0.225,0.243,0.254,0.569,0.487,0.518,0.321,0.409
HCC-827,0.999,1.01,1.03,1.08,1.03,0.217,0.247,0.209,0.215,0.233,0.432,–,0.405,0.268,0.736,0.223,0.123,0.329,0.249,0.325
LK-2,0.791,1.03,1.04,0.684,0.548,1.01,0.992,0.934,0.825,0.481,0.18,0.16,0.169,0.177,0.172,0.286,0.248,0.163,0.203,0.179
BEN,0.0591,0.0567,0.065,0.0608,0.0653,0.624,0.754,0.817,0.608,0.505,0.376,0.402,0.33,0.376,0.597,0.349,0.298,0.331,0.252,0.26
NCI-H23,0.714,1.18,0.828,0.868,0.635,0.887,1.12,1.07,1.15,0.759,0.228,0.213,0.203,0.22,0.189,0.776,0.834,0.844,0.792,0.748
NCI-H1395,1.13,1.42,1.21,1.17,1.02,1.13,1.06,1.46,0.935,0.963,0.63,0.661,0.665,0.557,0.415,0.41,0.397,0.363,0.379,0.313
201T,1.18,1.26,1.19,1.21,1.18,0.854,1.02,0.979,0.972,0.8,1.24,0.976,1.07,1.04,0.979,0.582,0.557,0.5,0.566,0.514
NCI-H2170,0.527,0.521,0.607,0.563,0.501,0.278,0.271,0.272,0.251,0.246,0.736,0.811,0.724,0.795,1.24,0.527,0.427,0.562,0.545,0.558
NCI-H460,1.03,1.24,1.19,1.02,1.11,0.832,1.15,1.03,0.815,0.689,0.0344,0.0414,0.0281,0.0308,0.0303,0.479,0.523,0.46,0.522,0.498
HCC-15,0.662,0.655,0.746,0.679,0.682,0.84,0.87,0.881,0.792,0.84,0.316,0.258,0.294,0.37,0.397,0.648,0.645,0.631,0.639,0.576
EPLC-272H,1.08,1.03,1.41,1.01,1.1,0.895,1.18,1.11,0.916,0.576,0.29,0.235,0.21,0.716,0.451,0.44,0.303,0.286,0.321,0.32
